Experimental findings from patent US20230014907A1, “INHIBITORS OF APOL1 AND METHODS OF USING SAME” (Vertex Pharmaceuticals Incorporated, priority 2020, published 2023) are described below.

The first assay deals with T1, APOL1 G1 Protein (Homo sapiens, UniProt O14791, I384M/S342G).
T1 sequence (O14791 28-398 S342G/I384M): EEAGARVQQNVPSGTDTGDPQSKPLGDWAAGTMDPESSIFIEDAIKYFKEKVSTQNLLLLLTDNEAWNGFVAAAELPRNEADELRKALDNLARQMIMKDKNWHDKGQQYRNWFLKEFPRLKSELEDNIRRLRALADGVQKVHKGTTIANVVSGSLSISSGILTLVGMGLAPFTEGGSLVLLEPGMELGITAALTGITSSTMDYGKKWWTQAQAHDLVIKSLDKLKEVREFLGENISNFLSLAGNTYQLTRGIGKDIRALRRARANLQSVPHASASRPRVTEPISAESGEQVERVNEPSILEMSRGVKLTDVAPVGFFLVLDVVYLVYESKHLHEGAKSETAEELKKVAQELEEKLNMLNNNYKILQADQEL
In words: Trypanosoma brucei brucei Lysis Assay Using APOL1 Recombinant Protein (AlamarBlue viability). The class given is cell-based. Particulars: read-out: Trypanosomal Assay (IC50). From the text: Trypanosoma brucei brucei is a blood stream parasite to which human, gorillas and baboon are immune due to the presence of the APOL1 protein in their HDL particles. The protein is uptaken by the parasite via the TbHpHb receptor located in its flagellar pocket and is bonded by the Hpr protein contained in the HDL particles which triggers the receptor endocytosis by the parasite.
Following endocytosis, the formed vesicle containing the HDL particle matures from early to late endosome, and subsequently to lysosome. The concomitant pH change in the lumen of the vesicle triggers the insertion of the APOL1 protein into the membrane of the late endosome/lysosome and hereby triggers lysosomal membrane permeabilization and as a further downstream event, trypanosome lysis. Trypanosoma brucei brucei is sensitive to lysis by all three APOL1 variants (G0, G1, and G2).
The Trypanosoma brucei brucei lysis assay is a lysis assay of the parasite using recombinant APOL1 protein variant followed by a fluorescent detection method of viability by the addition of AlamarBlue reagent to the assay well, a general metabolic redox indicator (AlamarBlue assay).
Briefly, the AlamarBlue active compound, the resazurin, a blue, water soluble, non-toxic and cell permeable molecule, which can be followed by absorbance, is reduced by various metabolic pathways into resorufin, a red compound which can be followed by either absorbance or fluorescence. The assay allows the calculation of the percent viability (percent of living Trypanosomes remaining in each well) at the end of a lysis relative to the untreated condition by interpolation of fluorescent values (FLU) on a standard curve with a known amount of seeded trypanosome/well.
Trypanosoma brucei brucei (ATCC, Cat. No. PRA-382) • Lister 427 VSG 221 bloodstream form.
Thaw/Expansion Media (ATCC Medium 2834 Modified HMI-9 Medium)
Assay Media (No Phenol Red/No FBS): Make on Day of Use
Hypoxanthine Stock (100×)-9 (10×)
Equipment • E1-Clip Tip pipette 12 channel adjustable 2-125 μL, Cat. No. 4672070BT • ThermoFisher MultiDrop 384, Cat. No. 5840300 • Multidrop • Agilent Bravo, Cat. No. G5409A • Bravo • SpectraMax M5
Trypanosoma brucei brucei Culture
Step 2, Day 4 • Centrifuge at 800×g for 5 minutes at room temperature. • Resuspend in 1 mL media. • Make a 1:25 fold dilution (10 μL/240 μL media). • Count on a hemocytometer (after adding parasites). • Let sit for 1-2 minutes for the parasites to settle. • Count should be approximately 100 viable motile parasites/16 grid or approximately 25×10^6 parasites/flask. • Passage the parasites by adding 1×10^6 parasites/T75 flask in 20 mL media. • Passage the parasites by adding 2.33×10^6 parasites/T175 flask in 46.6 mL media. • For every T75 flask should make enough for approximately 1.5×384 well assay plates. • For every T175 flask should make enough for approximately 3.8×384 well assay plates.
Step 3, Day 6 • Centrifuge at 800×g for 5 minutes. • Resuspend in 3 mL assay media (No phenol red, no FBS) per 75 starting flask. • Resuspend in 7 mL assay media (No phenol red, no FBS) per 175 flask • Make a 1:25 fold dilution. • Count by hemocytometer. • Every T75 flask set up should have approximately 75×10^6 parasites/flask (verify doubling time=8.7 hours±1 hour). • Every T175 flask set up should have approximately 175×10^6 parasites/flask (verify doubling time=8.7 hours±1 hour). • Require 46×10^6 parasites per 384 well plate (at 120,000 parasites per well). […]
A general note: Alamar Blue is a resazurin reagent that responds to reducing activity.
`O=C(CCc1c(-c2ccc(F)cc2)[nH]c2ccc(F)cc12)NC1COC1` [Compound 69]: the IC50 was > 1000 nM.
Consider `CC(=O)NCCCc1c(-c2ccc(F)cc2)[nH]c2c(F)cc(F)cc12` [Compound 505, N-[3-[5,7-difluoro-2-(4-fluorophenyl)-1H-indol-3-yl]propyl]acetamide], for which the IC50 is 250 to 1000 nM.
Consider `O=C(CCc1c(-c2ccc(F)cc2)[nH]c2ccc(F)cc12)NC1(CO)CCC1` [Compound 4], for which the IC50 was < 250 nM.
Same read-out and setting: next, `CC1CC(NC(=O)CCc2c(-c3ccc(F)cc3)[nH]c3c(F)cc(F)cc23)C(=O)O1` (mixture of isomers) [Compound 189]: > 1000 nM; `O=C(CCc1c(-c2ccc(F)cc2)[nH]c2c(F)cc(F)cc12)NC(CO)c1ccccn1` (stereo not shown) [Compound 185]: > 1000 nM.
The same measure, in the same setting: next, `O=C(CCc1c(-c2ccc(F)cc2)[nH]c2c(F)cc(F)cc12)N[C@H](CO)C(F)(F)F` [Compound 128]: 250 to 1000 nM.
Regarding `CON(C)C(=O)CCc1c(-c2ccc(F)cc2)[nH]c2ccccc12` [Compound 237], the IC50 is > 1000 nM.

The target in another assay is T2, G1 APOL1 (Homo sapiens, UniProt O14791, I384M/S342G).
T2 construct: expressed in transfected cells
T2 sequence (O14791 28-398 S342G/I384M): T1 sequence (O14791 28-398 S342G/I384M)
In words: Acute APOL1 Thallium Assay with Inducible Stable Clones of HEK 293 Cells. It is filed as cell-based. Particulars: HEK 293 inducible stable clones, G1 APOL1; read-out: Thallium Assay (IC50). The gist of the method:
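HEK293 T-Rex cells with a stable tetracycline-inducible G1 APOL1 construct (clone DC3.25) were induced with tetracycline at plating, 26000 cells per well, then incubated at 37° C. They were loaded with an AM-ester thallium-sensitive dye and stimulated with Tl+. The fluorescence rise measured Tl+ influx through APOL1 pores.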
Take `O=C(CCc1c(-c2ccc(F)cc2)[nH]c2ccc(F)cc12)NC1COC1` [Compound 69]: the IC50 was > 1000 nM.
Still for that read-out and setting: with `CC(=O)NCCCc1c(-c2ccc(F)cc2)[nH]c2c(F)cc(F)cc12` [Compound 505, N-[3-[5,7-difluoro-2-(4-fluorophenyl)-1H-indol-3-yl]propyl]acetamide] the figure was < 250 nM.
The same measure, in the same setting: next, `O=C(CCc1c(-c2ccc(F)cc2)[nH]c2ccc(F)cc12)NC1(CO)CCC1` [Compound 4]: < 250 nM.
`CC1CC(NC(=O)CCc2c(-c3ccc(F)cc3)[nH]c3c(F)cc(F)cc23)C(=O)O1` (mixture of isomers) [Compound 189]: the IC50 was > 1000 nM.
On the same count and under the same terms, next, `O=C(CCc1c(-c2ccc(F)cc2)[nH]c2c(F)cc(F)cc12)NC(CO)c1ccccn1` (stereo not shown) [Compound 185]: > 1000 nM; `CC(O)C(C)NC(=O)OCCc1c(-c2ccc(F)cc2)[nH]c2c(F)cc(F)cc12` (mixture of isomers) [Compound 453]: 250 to 1000 nM.
On the same count and under the same terms, with `O=C(NCC1CCOC1)OCCc1c(-c2ccc(F)cc2)[nH]c2c(F)cc(F)cc12` (stereo not shown) [Compound 491] the figure was > 1000 nM.
The same measure, in the same setting: next, `O=C(NCCc1c(-c2ccc(F)cc2)[nH]c2c(F)cc(F)cc12)NCC1CCCO1` (stereo not shown) [Compound 297]: > 1000 nM.
Consider `O=C1N[C@H](C(=O)NCCc2c(-c3ccc(F)cc3)[nH]c3c(F)cc(F)cc23)CCO1` [Compound 323], for which the IC50 is > 1000 nM.
`O=C(CCc1c(-c2ccc(F)cc2)[nH]c2c(F)cc(Cl)cc12)NC(CO)CO` [Compound 212]: the IC50 lay within 250 to 1000 nM.
On the same count and under the same terms, with `Cc1cc(F)c2[nH]c(-c3ccc(F)cc3)c(CCC(=O)N[C@@H](CO)C(F)(F)F)c2c1` [Compound 214] the figure was < 250 nM; with `CC(C)(C)OC(=O)N[C@@H](CCO)C(=O)NCCc1c(-c2ccc(F)cc2)[nH]c2c(F)cc(F)cc12` [Compound 307], > 1000 nM; with `Cc1cc(F)c2[nH]c(-c3ccc(F)cc3)c(CCC(=O)NC3(CO)CCC3)c2c1` [Compound 216], 250 to 1000 nM.
For `CC(CCO)NC(=O)CCc1c(-c2ccc(F)cc2)[nH]c2c(F)cc(F)cc12` (racemic) [Compound 147], the IC50 is > 1000 nM.
Same read-out and setting: next, `O=C(NCCc1c(-c2ccc(F)cc2)[nH]c2c(F)cc(F)cc12)c1cncnc1` [Compound 400]: > 1000 nM.
`O=C(N[C@H]1COC[C@@H]1O)OCCc1c(-c2ccc(F)cc2)[nH]c2c(F)cc(F)cc12` [Compound 474]: the IC50 fell in the range of 250 to 1000 nM.
The same measure, in the same setting: next, `CC(=O)NCCc1c(-c2ccc(F)cc2)[nH]c2c(F)cc(F)cc12` [Compound 418, N-[2-[5,7-difluoro-2-(4-fluorophenyl)-1H-indol-3-yl]ethyl]acetamide]: > 1000 nM.
On the same count and under the same terms, with `O=C(NCCc1ccncc1)NCCc1c(-c2ccc(F)cc2)[nH]c2c(F)cc(F)cc12` [Compound 288] the figure was > 1000 nM; with `O=C(NCCc1c(-c2ccc(F)cc2)[nH]c2c(F)cc(F)cc12)C1(F)CCC1` [Compound 406], 250 to 1000 nM; with `C[C@H](O)CNC(=O)OCCc1c(-c2ccc(F)cc2)[nH]c2c(F)cc(F)cc12` [Compound 462], 250 to 1000 nM.
Same read-out and setting: with `COCCC(=O)NCCc1c(-c2ccc(F)cc2)[nH]c2c(F)cc(F)cc12` [Compound 412] the figure was 250 to 1000 nM; with `O=C(NC(CO)C1CC1)OCCc1c(-c2ccc(F)cc2)[nH]c2c(F)cc(F)cc12` (stereo not shown) [Compound 451], < 250 nM.
Take `O=C(NC1CCOC1)OCCc1c(-c2ccc(F)cc2)[nH]c2c(F)cc(F)cc12` (stereo not shown) [Compound 463]: the IC50 lay in the range of 250 to 1000 nM.
As to `Cc1nccn1CC(=O)NCCc1c(-c2ccc(F)cc2)[nH]c2c(F)cc(F)cc12` [Compound 380], the IC50 is > 1000 nM.
As for `CC(O)CCNC(=O)NCCc1c(-c2ccc(F)cc2)[nH]c2c(F)cc(F)cc12` (stereo not shown) [Compound 278], the concentration for half-maximal inhibition (IC50) was > 1000 nM.
Still for that read-out and setting: next, `C[C@@H](CO)N(C)C(=O)NCCc1c(-c2ccc(F)cc2)[nH]c2c(F)cc(F)cc12` [Compound 300]: > 1000 nM; `CNC(=O)C(=O)NCCc1c(-c2ccc(F)cc2)[nH]c2c(F)cc(F)cc12` [Compound 359]: > 1000 nM.
For `Cc1cc(F)c2[nH]c(-c3ccc(F)cc3)c(CCC(=O)NC(CO)CF)c2c1` (stereo not shown) [Compound 221], the IC50 is > 1000 nM.
With `CC(C)(O)CCNC(=O)NCCc1c(-c2ccc(F)cc2)[nH]c2c(F)cc(F)cc12` [Compound 270], the IC50 was > 1000 nM.
On the same count and under the same terms, with `CC(C)(C)[C@H](CO)NC(=O)NCCc1c(-c2ccc(F)cc2)[nH]c2c(F)cc(F)cc12` [Compound 265] the figure was > 1000 nM; with `O=C(NCCc1c(-c2ccc(F)cc2)[nH]c2c(F)cc(F)cc12)NC(CO)CF` (stereo not shown) [Compound 259, 1-[2-[5,7-difluoro-2-(4-fluorophenyl)-1H-indol-3-yl]ethyl]-3-[1-(fluoromethyl)-2-hydroxy-ethyl]urea], 250 to 1000 nM.
With `C[C@H](NC(=O)NCCc1c(-c2ccc(F)cc2)[nH]c2c(F)cc(F)cc12)C(=O)O` [Compound 281], the IC50 is > 1000 nM.
On to `Cc1cc(F)c2[nH]c(-c3ccc(F)cc3)c(CCC(=O)N[C@H](CO)C(F)(F)F)c2c1` [Compound 224], for which the IC50 is > 1000 nM.
For `Cc1cc(F)c2[nH]c(-c3ccc(F)cc3)c(CCC(=O)NC(C)(CO)CO)c2c1` [Compound 225], the IC50 is > 1000 nM.
On the same count and under the same terms, next, `CC(C#N)(CO)NC(=O)OCCc1c(-c2ccc(F)cc2)[nH]c2c(F)cc(F)cc12` (racemic) [Compound 461]: 250 to 1000 nM.
Consider `CC(CC(N)=O)N(C)C(=O)NCCc1c(-c2ccc(F)cc2)[nH]c2c(F)cc(F)cc12` (racemic) [Compound 290], for which the IC50 is > 1000 nM.
On the same count and under the same terms, next, `O=C(CCN1CCCC1=O)NCCc1c(-c2ccc(F)cc2)[nH]c2c(F)cc(F)cc12` [Compound 370]: > 1000 nM; `C[C@@H](CO)NC(=O)CCc1c(-c2ccc(F)cc2)[nH]c2c(F)cc(Cl)cc12` [Compound 203]: > 1000 nM.
For the compound `CN(C)C(=O)CCC(=O)NCCc1c(-c2ccc(F)cc2)[nH]c2c(F)cc(F)cc12` [Compound 374], the concentration for half-maximal inhibition (IC50) was > 1000 nM.
`Cc1cc(F)c2[nH]c(-c3ccc(F)cc3)c(CCC(=O)NCC(N)=O)c2c1` [Compound 223]: the IC50 is > 1000 nM.
On the same count and under the same terms, with `O=C(NCCc1c(-c2ccc(F)cc2)[nH]c2c(F)cc(F)cc12)NCc1cccc(O)c1` [Compound 264] the figure was > 1000 nM.
As to `CCOCCNC(=O)OCCc1c(-c2ccc(F)cc2)[nH]c2c(F)cc(F)cc12` [Compound 455], the IC50 was 250 to 1000 nM.

Usually IC50 stands for the concentration that inhibits the measured activity by half.
